From patent US11696928B2, “Compounds and use thereof in the expansion of stem cells and/or progenitor cells” (UNIVERSITE DE MONTREAL, priority 2017, dated 2023) come the findings set out here.

For one data set, the target named is T1, AhR (Homo sapiens, UniProt P35869).
T1 construct: One of the resultant clones was named HEK-XRE 11.1, and used in the reporter gene assays; endogenous in cells; host or cells: HEK-XRE 11.1 (HEK cells stably carrying the AhR-responsive luciferase reporter X4-4.27 and phRL-CMV)
T1 sequence (P35869 11-848): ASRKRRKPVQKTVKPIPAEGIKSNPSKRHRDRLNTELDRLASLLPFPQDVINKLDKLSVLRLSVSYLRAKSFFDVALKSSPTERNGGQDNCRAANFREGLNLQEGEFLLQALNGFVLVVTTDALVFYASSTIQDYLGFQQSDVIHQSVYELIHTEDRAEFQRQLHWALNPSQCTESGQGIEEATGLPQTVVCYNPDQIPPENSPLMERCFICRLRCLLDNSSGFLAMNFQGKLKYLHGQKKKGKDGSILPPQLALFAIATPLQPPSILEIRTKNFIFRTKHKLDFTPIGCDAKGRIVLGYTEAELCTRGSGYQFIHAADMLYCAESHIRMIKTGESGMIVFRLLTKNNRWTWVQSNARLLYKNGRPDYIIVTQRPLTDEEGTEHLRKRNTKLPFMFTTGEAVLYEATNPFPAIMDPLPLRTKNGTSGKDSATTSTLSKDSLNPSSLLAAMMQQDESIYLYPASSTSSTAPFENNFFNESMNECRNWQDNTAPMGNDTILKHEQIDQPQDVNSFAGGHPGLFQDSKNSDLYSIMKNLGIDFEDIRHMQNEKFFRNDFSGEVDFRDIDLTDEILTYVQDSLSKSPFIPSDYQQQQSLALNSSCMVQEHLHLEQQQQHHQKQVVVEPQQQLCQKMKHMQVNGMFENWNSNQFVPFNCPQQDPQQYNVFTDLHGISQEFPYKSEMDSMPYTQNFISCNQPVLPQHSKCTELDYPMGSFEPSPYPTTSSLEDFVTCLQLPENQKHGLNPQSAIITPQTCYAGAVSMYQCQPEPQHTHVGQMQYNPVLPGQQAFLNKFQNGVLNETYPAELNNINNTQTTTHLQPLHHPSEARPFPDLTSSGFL
The data set is described as follows: Inhibition of AhR-mediated gene transcription (HEK-XRE 11.1 luciferase reporter, MeBIO induction). The class given is cell-based. To be noted: HEK-XRE 11.1 cells, MeBIO 0.1 nM, luminescence after 24 hours. Here is the method:
HEK cells line was transfected with an AhR-responsive firefly luciferase reporter gene X4-4.27 and the stable transfectants generated were again transfected with phRL-CMV (a Renilla luciferase expression vector; Promega) along with pBAsi-hU6 Pur DNA (a plasmid carrying the puromycin-resistant gene; TaKaRa, Shiga, Japan), and maintained in the presence of both hygromycin B and puromycin (2 mg/mL). One of the resultant clones was named HEK-XRE 11.1, and used in the reporter gene assays.
HEK-XRE 11.1 cells were plated in 384-well plates at a density of 25,000 cells in 50 uL volume per well. The induction of ARh pathway was done by addition of MeBIO at 0.1 nM concentration. ARh antagonist compounds were then added to seeded cells in serial dilutions (8 dilutions, 1:[…] down to 5 nM) in duplicate wells. Renilla expression was not used as internal control. On each plate, Compound 1001 and SR1 were added as dose control (8 dilutions, 1:3, 5 mM down to 2.5 nM for SR1 and 2 mM down to 1 nM for compound 1001). Luminescence activity was evaluated after 24 hours culture using Lumi-384-CellTiterGlo-Corning protocol. Dose-response curves were generated using nonlinear regression in Excel.

For data set [1], the system named is Human CD34+ cord blood (CB) cells. The data set is described as follows: CD34+ activity assessment (7-day expansion of pre-expanded CD34+ cells, flow cytometry). The class given is cell-based. To be noted: concentration at which compound/vehicle ratio of CD34+ cell number is >= 1.5; 7 days, with 35 nM UM0128171; Table 1. Here is the method: Human CD34+ cord blood (CB) cells were isolated from fresh units using RosetteSep™ 0034 pre-enrichment cocktail followed by CD34 positive selection using EasySep Kit™ (StemCell Technologies). The cells were then pre-expanded in bulk, by culturing at 37° C. for 6 days in HSC expansion media consisting of StemSpan ACF (StemCell Technologies) supplemented with 100 ng/mL Stem Cell Factor (SCF, Shenandoah), 100 ng/mL FMS-like Tyrosine Kinase 3 Ligand (FLT3L, Shenandoah), 50 ng/mL Thrombopoietin (TPO, Shenandoah), 2 mM GlutaMAX™ (Invitrogen), 10 μg/mL low density lipoproteins (LDL, StemCell Technologies), 10 μg/mL Ciprofloxacin and 35 nM UM0128171. […] Following the pre-expansion, cells were harvested, aliquoted and frozen until use.
For each activity assessment, CD34+ pre-expanded cells (approximately 2000 per well in a 384-well plate) were cultured in HSC expansion media, in the presence of 35 nM UM0128171. Compounds were serially diluted (1/2) in DMSO (10 dilutions per compound) and added to the cells in order to achieve a 1/1000 final dilution. StemRegenin1 (SR1) and/or Compound 1001 were included in all experiments as controls to monitor assay performance. The plate was incubated at 37° C. for 7 days in static conditions (i.e. no shaking and no addition of media). Flow cytometry analysis was performed at the end of the 7-day expansion. Cells were stained with PE-labeled anti-human CD45RA (BD Biosciences) and APC-labeled anti-human CD34 (BD Biosciences) and analyzed using Intellicyt IQue cytometer equipped with ForeCyt software. Gates were drawn around the populations of interest to obtain cell numbers and relative proportions. The EC1.5 value, which is the concentration at which the compound/vehicle ratio is greater or equal to 1.5, was calculated by plotting the CD34+ cell number against concentrations (log-scale) in a 4-PL curve and fitting the curve using IDBS XLfit (set model 251) in Microsoft Excel.
In general terms: In flow cytometry, cells or beads pass a laser one at a time.

Structures are written as SMILES.

One may read the IC50 as the concentration that gives 50% inhibition.

In turn, `Nc1c(C(=O)Nc2ccc(F)cc2)sc2nc3c(cc12)CCC3` [Compound 1002] registered an IC50 against AhR (Table 1) of under 50 nM.

In turn, `Nc1c(C(=O)Nc2ccccc2)sc2ncc(Br)cc12` [Compound 1003] yielded a half-maximal inhibitory concentration (IC50) against AhR (Table 1) of under 50 nM. Turning to `Nc1c(C(=O)Nc2ccccc2)sc2ncc(Cl)cc12` [Compound 1004], the EC1.5 in data set [1] lay within 100 to 1000 nM. Also, at AhR (Table 1), the IC50 was under 50 nM. The like results for `Cc1cc2c(N)c(C(=O)Nc3ccccc3)sc2nc1C` [Compound 1005] were, in that order, 100 to 1000 nM and 50 to 500 nM. In the same order, the values of `Nc1c(C(=O)Nc2cccnc2)sc2nc3c(cc12)CCC3` [Compound 1006] are 1000 to 5000 nM and 50 to 500 nM. The like results for `Nc1c(C(=O)Nc2ccccn2)sc2nc3c(cc12)CCC3` [Compound 1007] were, in that order, 100 to 1000 nM and under 50 nM. Turning to `Nc1c(C(=O)Nc2ccccc2)sc2ncc(C(F)(F)F)cc12` [Compound 1008], in data set [1], the EC1.5 fell in the range of 100 to 1000 nM. On AhR (Table 1), this compound registered an IC50 of over 500 nM. For `Cc1cnc2sc(C(=O)Nc3ccccc3)c(N)c2c1` [Compound 1009], at AhR (Table 1), the IC50 is under 50 nM. On to `Nc1c(C(=O)Nc2ccccc2)sc2ncc(F)cc12` [Compound 1010], for which the EC1.5 in data set [1] is on record as over 5000 nM. The IC50 at AhR (Table 1) was in the range of 50 to 500 nM. In the same order, the values of `Nc1c(C(=O)Nc2ccncc2)sc2ncc(Cl)cc12` [Compound 1011] are 1000 to 5000 nM and under 50 nM. `Nc1c(C(=O)Nc2ccncc2)sc2ncc(Br)cc12` [Compound 1012] gave an IC50 against AhR (Table 1) of 50 to 500 nM. For the compound `Nc1c(C(=O)Nc2ccncc2)sc2ncc(C(F)(F)F)cc12` [Compound 1013], the EC1.5 in data set [1] is 100 to 1000 nM. The same compound registered an IC50 against AhR (Table 1) of over 500 nM. The like results for `Nc1c(C(=O)Nc2ccncc2)sc2nc3c(cc12)CCC3` [Compound 1014] were, in that order, 1000 to 5000 nM and 50 to 500 nM.

Regarding `Nc1c(C(=O)Nc2cccnc2)sc2ncc(C(F)(F)F)cc12` [Compound 1015], the EC1.5 in data set [1] is 100 to 1000 nM. The IC50 against AhR (Table 1) is over 500 nM. Take `N#Cc1cnc2sc(C(=O)Nc3ccccc3)c(N)c2c1` [Compound 1016]: the EC1.5 in data set [1] fell in the range of 100 to 1000 nM. Also, the IC50 against AhR (Table 1) was over 500 nM. At AhR (Table 1), `C#Cc1cnc2sc(C(=O)Nc3ccncc3)c(N)c2c1` [Compound 1020] gave an IC50 of 50 to 500 nM. Take `CCc1cnc2sc(C(=O)Nc3ccncc3)c(N)c2c1` [Compound 1021]: the IC50 against AhR (Table 1) was in the range of 50 to 500 nM. On the same count and under the same terms, as for `Nc1c(C(=O)Nc2ccc(Br)cc2)sc2ncc(C(F)(F)F)cc12` [Compound 1037], the figure is under 50 nM; as for `Nc1c(C(=O)Nc2ccc(Br)cc2)sc2cnc(C(F)(F)F)cc12` [Compound 1049], 50 to 500 nM. Same read-out and setting: as for `Nc1c(C(=O)Nc2ccc(-c3cccnc3)cc2)sc2ncc(C(F)(F)F)cc12` [Compound 1055], the figure is 50 to 500 nM. Same read-out and setting: then `Nc1c(C(=O)Nc2ccc(F)cc2)sc2ncc(C(F)(F)F)cc12` [Compound 1060], with under 50 nM; and `C=C(C)c1cnc2sc(C(=O)Nc3ccccc3)c(N)c2c1` [Compound 1090], with under 50 nM; and `CC(C)c1cnc2sc(C(=O)Nc3ccccc3)c(N)c2c1` [Compound 1103], with under 50 nM.

In turn, `C=CCc1cnc2sc(C(=O)Nc3ccccc3)c(N)c2c1` [Compound 1111] had an IC50 against AhR (Table 1) of 50 to 500 nM. On the same count and under the same terms, as for `CCc1cnc2sc(C(=O)Nc3ccccc3)c(N)c2c1` [Compound 1112], the figure is 50 to 500 nM; as for `Cc1ccc2sc(C(=O)Nc3ccccc3)c(N)c2c1` [Compound 1118], under 50 nM. As for `Nc1c(C(=O)Nc2ccc(F)cn2)sc2ncc(C(F)(F)F)cc12` [Compound 1128], the EC1.5 in data set [1] lay in the range of 100 to 1000 nM. As for `CSc1ccc(NC(=O)c2sc3ncc(C(F)(F)F)cc3c2N)cc1` [Compound 1133], the IC50 at AhR (Table 1) is under 50 nM.

On to `CCCc1cnc2sc(C(=O)Nc3ccccc3)c(N)c2c1` [Compound 1134], for which the IC50 at AhR (Table 1) was under 50 nM. `Nc1c(C(=O)Nc2ccccc2)oc2nc3c(cc12)CCC3` [Compound 1153] yielded an IC50 at AhR (Table 2) of 50 to 500 nM.
